We go through 29 compounds from patent US9765060B2 (Gilead Sciences, Inc., priority 2014, dated 2017).

Chain of PI3K isoform δ (O00329 whole entry, canonical isoform): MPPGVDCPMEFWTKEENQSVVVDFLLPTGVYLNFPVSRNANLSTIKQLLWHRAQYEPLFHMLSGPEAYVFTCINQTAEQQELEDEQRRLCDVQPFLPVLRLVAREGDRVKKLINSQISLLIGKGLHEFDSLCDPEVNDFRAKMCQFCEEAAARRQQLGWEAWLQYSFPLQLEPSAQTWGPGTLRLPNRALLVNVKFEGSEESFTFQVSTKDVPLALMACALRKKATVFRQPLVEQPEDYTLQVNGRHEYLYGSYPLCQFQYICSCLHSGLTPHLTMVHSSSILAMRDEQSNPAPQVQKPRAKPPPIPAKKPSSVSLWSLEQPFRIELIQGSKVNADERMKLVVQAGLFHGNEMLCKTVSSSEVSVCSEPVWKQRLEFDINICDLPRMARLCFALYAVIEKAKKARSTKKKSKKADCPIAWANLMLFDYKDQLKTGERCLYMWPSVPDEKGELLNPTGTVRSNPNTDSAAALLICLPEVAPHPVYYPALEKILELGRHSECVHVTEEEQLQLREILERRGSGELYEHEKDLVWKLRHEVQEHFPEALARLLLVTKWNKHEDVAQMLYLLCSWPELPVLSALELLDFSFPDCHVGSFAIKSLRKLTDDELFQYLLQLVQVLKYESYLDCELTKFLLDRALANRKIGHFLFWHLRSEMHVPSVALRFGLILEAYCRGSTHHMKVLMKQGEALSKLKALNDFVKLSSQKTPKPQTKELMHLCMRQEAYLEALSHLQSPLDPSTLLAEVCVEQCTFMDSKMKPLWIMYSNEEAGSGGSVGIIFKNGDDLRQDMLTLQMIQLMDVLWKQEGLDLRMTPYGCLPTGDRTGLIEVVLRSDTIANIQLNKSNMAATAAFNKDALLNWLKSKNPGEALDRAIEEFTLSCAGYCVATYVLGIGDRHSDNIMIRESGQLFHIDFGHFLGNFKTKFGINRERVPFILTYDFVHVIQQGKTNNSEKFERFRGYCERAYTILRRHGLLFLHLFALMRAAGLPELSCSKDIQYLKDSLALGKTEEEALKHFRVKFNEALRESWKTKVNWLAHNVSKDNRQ
Chain of PI3K isoform δ (P27986 whole entry partner, canonical isoform): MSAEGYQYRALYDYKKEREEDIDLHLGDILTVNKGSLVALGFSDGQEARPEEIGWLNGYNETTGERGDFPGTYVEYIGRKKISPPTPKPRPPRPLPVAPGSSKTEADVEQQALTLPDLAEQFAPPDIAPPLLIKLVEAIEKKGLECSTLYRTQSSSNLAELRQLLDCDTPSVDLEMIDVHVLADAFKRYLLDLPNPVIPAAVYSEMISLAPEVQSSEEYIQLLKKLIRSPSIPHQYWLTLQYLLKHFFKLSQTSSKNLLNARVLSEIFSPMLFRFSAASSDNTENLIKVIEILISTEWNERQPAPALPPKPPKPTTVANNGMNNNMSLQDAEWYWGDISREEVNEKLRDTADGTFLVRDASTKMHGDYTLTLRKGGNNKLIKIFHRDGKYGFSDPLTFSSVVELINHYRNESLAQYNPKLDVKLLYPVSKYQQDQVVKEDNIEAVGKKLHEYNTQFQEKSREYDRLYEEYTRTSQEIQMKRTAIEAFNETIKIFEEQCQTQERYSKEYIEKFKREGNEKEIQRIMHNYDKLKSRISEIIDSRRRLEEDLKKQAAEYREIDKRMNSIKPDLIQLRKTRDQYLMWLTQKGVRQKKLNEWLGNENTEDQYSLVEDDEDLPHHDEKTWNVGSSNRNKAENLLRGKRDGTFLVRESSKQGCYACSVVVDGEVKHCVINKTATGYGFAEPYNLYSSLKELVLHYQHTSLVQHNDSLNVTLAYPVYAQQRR

One assay has as its target PI3K isoform δ (Homo sapiens (Human), UniProt O00329). Kind of assay: TR-FRET assay of enzymatic activity of class I PI3K isoforms.
Details: not given
A general note: Time-resolved FRET reads energy transfer from a long-lived donor to a nearby acceptor.
Broadly, the IC50 is the concentration needed to halve the response being measured. `N#Cc1c(N)nc(N)nc1NC(c1nc2cccc(F)c2c(=O)n1-c1cccc(F)c1)C1CC1` (single isomer, unassigned) [Compound 15a, 2,4-diamino-6-((cyclopropyl(5-fluoro-3-(3-fluorophenyl)-4-oxo-3,4-dihydroquinazolin-2-yl)methyl)amino)pyrimidine-5-carbonitrile] came in with an IC50 of 6 nM.

For the compound `CO[C@H]1C[C@@H](c2nc3cccc(Cl)c3c(=O)n2-c2cc(F)cc(F)c2)N(c2nc(N)nc(N)c2C#N)C1` [Compound 19, 2,4-diamino-6-((2S)-2-(5-chloro-3-(3,5-difluorophenyl)-4-oxo-3,4-dihydroquinazolin-2-yl)-4-methoxypyrrolidin-1-yl)pyrimidine-5-carbonitrile], it took 9 nM to reach half-maximal inhibition (IC50).

The same assay, now with this note: IC50 (nM) for PI3K isoform δ (Table 2), TR-FRET; 2× Km ATP, 2 μM PIP2; incubated for 30 minutes at 25° C.
On to `CS(=O)(=O)c1cccc2nc(C(Nc3nc(N)nc(N)c3C#N)C3CC3)n(-c3ccccc3F)c(=O)c12` (single isomer, unassigned) [Compound 17a-1], for which it took 6 nM to reach half-maximal inhibition (IC50).

On to `CS(=O)(=O)c1cccc2nc(C(Nc3nc(N)nc(N)c3C#N)C3CC3)n(-c3ccccc3F)c(=O)c12` (single isomer, unassigned) [Compound 17a-2], for which the IC50 came out at 8 nM.

The same assay, now with this note: read-out: IC50 (nM) for PI3K isoform δ (Table 2); TR-FRET; 2× Km ATP, 2 μM PIP2; incubated for 30 minutes at 25° C.
Consider `N#Cc1c(N)nc(N)nc1N[C@H](c1nc2cccc(C#N)c2c(=O)n1-c1ccccc1)C1CC1` [Compound 1a, (S)-2-(cyclopropyl((2,6-diamino-5-cyanopyrimidin-4-yl)amino)methyl)-4-oxo-3-phenyl-3,4-dihydroquinazoline-5-carbonitrile], for which the concentration for half-maximal inhibition (IC50) turned out to be 5 nM.

On to `N#Cc1c(N)nc(N)nc1N[C@H](c1nc2c(F)ccc(C#N)c2c(=O)n1-c1ccccc1)C1CC1` [Compound 2a, (S)-2-(cyclopropyl((2,6-diamino-5-cyanopyrimidin-4-yl)amino)methyl)-8-fluoro-4-oxo-3-phenyl-3,4-dihydroquinazoline-5-carbonitrile], for which the IC50 came out at 10 nM.

For the compound `N#Cc1c(N)nc(N)nc1N[C@@H](c1ccccc1)c1nc2cccc(Cl)c2c(=O)n1-c1ccccc1` [Compound 3a, (S)-2,4-diamino-6-(((5-chloro-4-oxo-3-phenyl-3,4-dihydroquinazoline-2-yl)(phenyl)methyl)amino)pyrimidine-5-carbonitrile], the half-maximal inhibitory concentration (IC50) is 0.3 nM.

Turning to `N#Cc1c(N)nc(N)nc1N[C@H](c1nc2cccc(C#N)c2c(=O)n1-c1cc(F)cc(C(F)F)c1)C1CC1` [Compound 4a], the half-inhibitory concentration (IC50) was 49 nM.

On to `CS(=O)(=O)c1cccc2nc([C@@H](Nc3nc(N)nc(N)c3C#N)C3CC3)n(-c3cccc(F)c3)c(=O)c12` [Compound 5a, (S)-2,4-diamino-6-((cyclopropyl(3-(3-fluorophenyl)-5-(methylsulfonyl)-4-oxo-3,4-dihydroquinazolin-2-yl)methyl)amino)pyrimidine-5-carbonitrile], for which the IC50 is 5 nM.

Regarding `CS(=O)(=O)c1cccc2nc([C@@H](Nc3nc(N)nc(N)c3C#N)C3CC3)n(-c3c(F)cccc3F)c(=O)c12` [Compound 6a, (S)-2,4-diamino-6-((cyclopropyl(3-(2,6-difluorophenyl)-5-(methylsulfonyl)-4-oxo-3,4-dihydroquinazolin-2-yl)methyl)amino)pyrimidine-5-carbonitrile], the concentration for half-maximal inhibition (IC50) was 41 nM.

Take `N#Cc1c(N)nc(N)nc1N[C@H](c1nc2ccc(F)c(C#N)c2c(=O)n1-c1cccc(F)c1)C1CC1` [Compound 7a, (S)-2-(cyclopropyl((2,6-diamino-5-cyanopyrimidin-4-yl)amino)methyl)-6-fluoro-3-(3-fluorophenyl)-4-oxo-3,4-dihydroquinazoline-5-carbonitrile]: the IC50 is 6 nM.

Take `N#Cc1c(N)nc(N)nc1N[C@H](c1nc2ccc(F)c(C#N)c2c(=O)n1-c1ccccc1)C1CC1` [Compound 8a, (S)-2-(cyclopropyl((2,6-diamino-5-cyanopyrimidin-4-yl)amino)methyl)-6-fluoro-4-oxo-3-phenyl-3,4-dihydroquinazoline-5-carbonitrile]: the IC50 is 2 nM.

`CN(C)C(=O)C[C@H](Nc1nc(N)nc(N)c1C#N)c1nc2cccc(Cl)c2c(=O)n1-c1cc(F)cc(F)c1` [Compound 9a, (S)-3-(5-chloro-3-(3,5-difluorophenyl)-4-oxo-3,4-dihydroquinazolin-2-yl)-3-((2,6-diamino-5-cyanopyrimidin-4-yl)amino)-N,N-dimethylpropanamide]: the IC50 is 61 nM.

Turning to `CN(C)C(=O)C[C@H](Nc1nc(N)nc(N)c1C#N)c1nc2cccc(Cl)c2c(=O)n1-c1ccccc1` [Compound 10a, (S)-3-(5-chloro-4-oxo-3-phenyl-3,4-dihydroquinazolin-2-yl)-3-((2,6-diamino-5-cyanopyrimidin-4-yl)amino)-N,N-dimethylpropanamide], the IC50 came to 2 nM.

As for `Cc1cccc2nc([C@@H](Nc3nc(N)nc(N)c3C#N)C3CC3)n(-c3cc(F)cc(C#N)c3)c(=O)c12` [Compound 11a, (S)-2,4-diamino-6-(((3-(3-cyano-5-fluorophenyl)-5-methyl-4-oxo-3,4-dihydroquinazolin-2-yl)(cyclopropyl)methyl)amino)pyrimidine-5-carbonitrile], the IC50 was determined as 14 nM.

For `Cc1cccc2nc([C@@H](Nc3nc(N)nc(N)c3C#N)C3CC3)n(-c3cc(F)cc(F)c3)c(=O)c12` [Compound 12a, (S)-2,4-diamino-6-((cyclopropyl(3-(3,5-difluorophenyl)-5-methyl-4-oxo-3,4-dihydroquinazolin-2-yl)methyl)amino)pyrimidine-5-carbonitrile], the half-maximal inhibitory concentration (IC50) worked out at 1 nM.

Take `N#Cc1c(N)nc(N)nc1N[C@H](c1nc2cccc(Cl)c2c(=O)n1-c1cc(F)cc(F)c1)C1CC1` [Compound 13a, (S)-2,4-diamino-6-(((5-chloro-3-(3,5-difluorophenyl)-4-oxo-3,4-dihydroquinazolin-2-yl)(cyclopropyl)methyl)amino)pyrimidine-5-carbonitrile]: the IC50 came to 1 nM.

Take `N#Cc1c(N)nc(N)nc1N[C@H](c1nc2cccc(F)c2c(=O)n1-c1cc(F)cc(F)c1)C1CC1` [Compound 14a, (S)-2,4-diamino-6-((cyclopropyl(3-(3,5-difluorophenyl)-5-fluoro-4-oxo-3,4-dihydroquinazolin-2-yl)methyl)amino)pyrimidine-5-carbonitrile]: the 50% inhibitory concentration (IC50) came out at 19 nM.

Consider `N#Cc1c(N)nc(N)nc1N[C@H](c1nc2ccc(F)cc2c(=O)n1-c1cccc(F)c1)C1CC1` [Compound 16a, (S)-2,4-diamino-6-((cyclopropyl(6-fluoro-3-(3-fluorophenyl)-4-oxo-3,4-dihydroquinazolin-2-yl)methyl)amino)pyrimidine-5-carbonitrile], for which the concentration for half-maximal inhibition (IC50) was 4 nM.

For `CC(=O)c1c(N)nc(N)nc1N[C@@H](C)c1nc2cccc(Cl)c2c(=O)n1-c1cc(F)cc(F)c1` [Compound 18a, (S)-2 (1-((5-acetyl-2,6-diaminopyrimidin-4-yl)amino)ethyl)-5-chloro-3-(3,5-difluorophenyl)quinazolin-4(3H)-one], the IC50 turned out to be 6 nM.

Staying with this assay, now noted: read-out: IC50 (nM) for PI3K isoform δ (Table 3); TR-FRET; 2× Km ATP, 2 μM PIP2; incubated for 30 minutes at 25° C.
As for `CS(=O)(=O)c1cccc2nc([C@@H]3CCCN3c3nc(N)nc(N)c3C#N)n(-c3ccccc3F)c(=O)c12` (atropisomer, axis not shown) [Compound 73, (S)-2,4-diamino-6-(2-(3-(2-fluorophenyl)-5-(methylsulfonyl)-4-oxo-3,4-dihydroquinazolin-2-yl)pyrrolidin-1-yl)pyrimidine-5-carbonitrile], the IC50 came out at 4 nM.

`CS(=O)(=O)c1cccc2nc([C@@H]3CCCN3c3nc(N)nc(N)c3C#N)n(-c3ccccc3F)c(=O)c12` (atropisomer, axis not shown) [Compound 74, (S)-2,4-diamino-6-(2-(3-(2-fluorophenyl)-5-(methylsulfonyl)-4-oxo-3,4-dihydroquinazolin-2-yl)pyrrolidin-1-yl)pyrimidine-5-carbonitrile]: the half-maximal inhibitory concentration (IC50) is 3 nM.

Take `N#Cc1c(N)nc(N)nc1N1CCC[C@H]1c1nc2c(Cl)ccc(Cl)c2c(=O)n1-c1cccc(S(N)(=O)=O)c1` (single isomer, unassigned) [Compound 92]: the IC50 came out at 7 nM.

With `Cc1nc(N)c(Br)c(N[C@@H](C)c2nc3cccc(Cl)c3c(=O)n2-c2ccccc2)n1` [Compound 20, (S)-2-(1-((6-amino-5-bromo-2-methylpyrimidin-4-yl)amino)ethyl)-5-chloro-3-phenylquinazolin-4(3H)-one], the 50% inhibitory concentration (IC50) came to 21 nM.

On to `Cc1nc(N)c(Br)c(N[C@@H](C)c2nc3cccc(Cl)c3c(=O)n2-c2cc(F)cc(F)c2)n1` [Compound 21, (S)-2-(1-((6-amino-5-bromo-2-methylpyrimidin-4-yl)amino)ethyl)-5-chloro-3-(3,5-difluorophenyl)quinazolin-4(3H)-one], for which the IC50 was 30 nM.

On to `C[C@H](Nc1nc(N)nc(N)c1C#N)c1nc2cccc(OCCN3CCOCC3)c2c(=O)n1-c1ccccc1` [Compound 22, (S)-2,4-diamino-6-((1-(5-(2-morpholinoethoxy)-4-oxo-3-phenyl-3,4-dihydroquinazolin-2-yl)ethyl)amino)pyrimidine-5-carbonitrile], for which the IC50 stood at 22 nM.

With `C[C@H](Nc1nc(N)nc(N)c1C#N)c1nc2cccc(OCCN3CCCCCC3)c2c(=O)n1-c1ccccc1` [Compound 23, (S)-2,4-diamino-6-((1-(5-(2-(azepan-1-yl)ethoxy)-4-oxo-3-phenyl-3,4-dihydroquinazolin-2-yl)ethyl)amino)pyrimidine-5-carbonitrile], the IC50 is 10 nM.

As for `C[C@H](Nc1nc(N)nc(N)c1C#N)c1nc2cccc(OCCN3CCCC3)c2c(=O)n1-c1ccccc1` [Compound 24, (S)-2,4-diamino-6-((1-(4-oxo-3-phenyl-5-(2-(pyrrolidin-1-yl)ethoxy)-3,4-dihydroquinazolin-2-yl)ethyl)amino)pyrimidine-5-carbonitrile], the IC50 was found to be 10 nM.

In the case of `CC(C)OC(=O)COc1cccc2nc([C@H](C)Nc3nc(N)nc(N)c3C#N)n(-c3ccccc3)c(=O)c12` [Compound 25, (S)-isopropyl 2-((2-(1-((2,6-diamino-5-cyanopyrimidin-4-yl)amino)ethyl)-4-oxo-3-phenyl-3,4-dihydroquinazolin-5-yl)oxy)acetate], the half-inhibitory concentration (IC50) is 36 nM.
